Data taken from publication PMC4594013 (Frontiers in Pharmacology, 2015).
Where “and” joins values, the source holds several entries; their conditions need not be identical. Identical values can stand only once. Counter-ions that a name gives are not always drawn. Like-named read-outs stand apart in the source and are kept apart here.

Experiments:
OAT2-tv1 [1] = biological target: T1, OAT2-tv1 (Homo sapiens, UniProt Q9Y694); assay: Inhibition of [3H]penciclovir uptake into CHO-OAT2-tv1 cells; type: cell-based; conditions: 5 min; for cis-inhibition of penciclovir uptake: CHO-OAT2-tv1 cells, test compound 1 mM, [3H]penciclovir ∼30 nM; for % Inhibition: inhibition of [3H]penciclovir uptake by CHO-OAT2-tv1 cells at the maximum concentration of test compound (Table 2, c1); for % Inhibition / IC50: room temperature
T1 sequence (Q9Y694 1-546 isoform Q9Y694-2): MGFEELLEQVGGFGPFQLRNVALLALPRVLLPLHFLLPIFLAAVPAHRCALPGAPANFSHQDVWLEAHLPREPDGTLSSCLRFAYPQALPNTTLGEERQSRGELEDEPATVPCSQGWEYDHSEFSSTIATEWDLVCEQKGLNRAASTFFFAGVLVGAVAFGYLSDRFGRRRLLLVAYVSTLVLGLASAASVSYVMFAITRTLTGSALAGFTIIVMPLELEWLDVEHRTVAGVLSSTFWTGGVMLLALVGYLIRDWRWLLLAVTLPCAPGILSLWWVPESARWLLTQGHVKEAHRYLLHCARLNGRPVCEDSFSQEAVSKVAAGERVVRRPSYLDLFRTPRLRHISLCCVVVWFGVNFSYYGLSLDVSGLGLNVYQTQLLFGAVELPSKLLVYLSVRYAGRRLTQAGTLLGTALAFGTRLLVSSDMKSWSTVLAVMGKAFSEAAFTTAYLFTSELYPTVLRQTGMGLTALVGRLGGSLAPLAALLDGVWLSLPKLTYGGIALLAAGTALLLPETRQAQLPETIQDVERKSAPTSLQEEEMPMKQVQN
Method: (§1) All experiments examining cellular radiolabeled compound uptake were conducted using cells grown to confluence in 24-well flat bottom plates. The transport solution consisted of WB (room temperature) containing radiolabeled compound and the uptake period for all experiments was at an initial rate time point of 5 min. [^3H]Penciclovir served as the probe OAT2 substrate. We also examined the uptake of [^3H]para-aminohippurate, [^3H]estrone-3-sulfate, [^14C]glutarate, [^14C]succinate, [^3H]paclitaxel, and [^3H]dehydroepiandrosterone sulfate by OAT2 since published studies indicate that they are substrates of the transport protein ([Sun et al., 2001]; [Kobayashi et al., 2005a]). […] For all cellular uptake experiments, the medium was aspirated and the cells were rinsed once with WB (0.3 ml). Following the uptake period, cells were washed three times with ice-cold WB (0.5 ml each wash). After aspirating the final wash the cells were lysed in 0.5 N NaOH/1% SDS (0.4 ml) for ∼30 min on an orbital shaker. 1 N HCl (0.2 ml) was then added to neutralize the NaOH, and the cell lysates (0.5 ml) were transferred to scintillation vials containing liquid scintillation cocktail (CytoScint ES, MP Biomedicals). Cellular radioactivity content was determined with a Beckman LS6500 liquid scintillation counter. Protein content was determined using the bicinchoninic acid method. See the Figure and Table Legends for additional details describing the experimental conditions used.
The concentration of each Kreb’s cycle intermediate was 1 mM. Uptake was conducted for 5 min.

OAT2-tv2 [2] = biological target: T2, OAT2-tv2 (Homo sapiens, UniProt Q9Y694); parameters: method as in Kobayashi et al., 2005a; conditions: OAT2-tv2 in Xenopus oocytes pre-loaded with 5 mM compound; ref Kobayashi et al., 2005a; cited from earlier work
T2 sequence (Q9Y694 1-548): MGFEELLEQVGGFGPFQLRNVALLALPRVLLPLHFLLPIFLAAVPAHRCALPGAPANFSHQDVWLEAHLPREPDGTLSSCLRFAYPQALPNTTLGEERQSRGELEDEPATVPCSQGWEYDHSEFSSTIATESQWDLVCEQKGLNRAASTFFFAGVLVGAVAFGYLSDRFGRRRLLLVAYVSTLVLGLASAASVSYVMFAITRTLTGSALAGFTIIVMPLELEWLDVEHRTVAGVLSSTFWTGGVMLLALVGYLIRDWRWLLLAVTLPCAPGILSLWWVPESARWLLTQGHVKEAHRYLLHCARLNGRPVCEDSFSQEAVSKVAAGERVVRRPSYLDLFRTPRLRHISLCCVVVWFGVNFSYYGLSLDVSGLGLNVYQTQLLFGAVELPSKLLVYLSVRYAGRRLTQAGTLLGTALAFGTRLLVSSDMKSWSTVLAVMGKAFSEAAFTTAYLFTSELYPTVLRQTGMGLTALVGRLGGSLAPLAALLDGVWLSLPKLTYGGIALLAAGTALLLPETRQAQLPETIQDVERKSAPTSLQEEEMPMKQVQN

OAT2-tv1 [3] = biological target: T1, OAT2-tv1; assay: Cellular uptake of radiolabeled compounds by CHO, HEK or MDCK cells stably expressing OAT2-tv1; conditions: for uptake compared to respective parental cells: CHO-, HEK- and MDCK-OAT2-tv1 cells, para-aminohippurate 8 nM, estrone-3-sulfate 10 nM, glutarate 18 μM
Method: as §1
FIGURE 2 Cellular accumulation of [^3H]penciclovir (A), [^3H]para-aminohippurate (B), [^3H]estrone-3-sulfate (C), or [^14C]glutarate (D) by parental CHO, HEK, or MDCK cells, or CHO, HEK, or MDCK cells stably expressing either OAT2-tv1 or OAT2-tv2. The concentration of [^3H]penciclovir in the transport solution was 0.1 μM for CHO and MDCK cell experiments, and 0.5 μM for HEK cell experiments. The concentrations of [^3H]para-aminohippurate, [^3H]estrone-3-sulfate and [^14C]glutarate were 8 nM, 10 nM, and 18 μM, respectively. Uptake was conducted for 5 min at room temperature.
FIGURE 4 Cellular accumulation of [^14C]succinate (18.5 μM) by CHO parental cells, CHO-OAT2-tv1 cells or CHO cells stably expressing the Na-dicarboxylate cotransporter 3 (NaDC3). Uptake was conducted for 5 min. Values are the mean ± standard error of the mean of four experiments for CHO parental and CHO-OAT2-tv1 cells. A single uptake experiment was performed with CHO-NaDC3 cells.

CHO parental cells = assay: Cellular accumulation of radiolabeled compounds in CHO parental cells; type: cell-based, Chinese hamster; conditions: [3H]dehydroepiandrosterone sulfate 12 nM, [3H]paclitaxel 22 nM, n = 3
OAT2-tv1 [4] = biological target: T1, OAT2-tv1; conditions: cited from earlier work
OAT2-tv2 [5] = biological target: T2, OAT2-tv2; assay: Cellular uptake of radiolabeled compounds by CHO, HEK or MDCK cells stably expressing OAT2-tv2; type: cell-based; parameters: The open reading frame of the human ortholog of OAT2 transcript variant 2 (OAT2-tv2) containing 548 amino acids was amplified from a construct obtained from Origene; host or cells: CHO, HEK and MDCK Flp-In cells; conditions: HEK- and MDCK-OAT2-tv2 cells, penciclovir 0.1/0.5 μM, para-aminohippurate 8 nM, estrone-3-sulfate 10 nM, glutarate 18 μM, 5 min
Method: [^3H]Penciclovir served as the probe OAT2 substrate. […] Protein content was determined using the bicinchoninic acid method.
Uptake was conducted for 5 min at room temperature.

[6] = system: OAT2 with an unidentified sequence; conditions: cited from earlier work
OAT2-tv3 = system: OAT2-tv3; parameters: method as in Sato et al., 2010; conditions: OAT2-tv3 in HEK293 cells; ref Sato et al., 2010; cited from earlier work
[7] = inhibition of [3H]penciclovir uptake by CHO-OAT2-tv1 cells, read-out: IC50
[8] = IC50, inhibition of [3H]penciclovir uptake by CHO-OAT2-tv1 cells

| Compound | % Inhibition (OAT2-tv1 [1]) [%] | IC50 (OAT2-tv1 [1]; [7]) | other results |
| --- | --- | --- | --- |
| O=C(O)/C=C/C(=O)O [fumarate] |  |  | cis-inhibition of penciclovir uptake (OAT2-tv1 [1]): none of the Kreb’s cycle intermediates tested, including succinate and fumarate, cis-inhibited penciclovir uptake; stimulation of estrone-3-sulfate uptake by pre-loading (OAT2-tv2 [2]): 1.7 fold |
| Nc1ccn(C[C@@H](CO)OCP(=O)(O)O)c(=O)n1 [Cidofovir] | 53 |  |  |
| CN(Cc1cnc2nc(N)nc(N)c2n1)c1ccc(C(=O)N[C@@H](CCC(=O)O)C(=O)O)cc1 [Methotrexate] | 76 |  |  |
| CCCCC(=O)N(Cc1ccc(-c2ccccc2-c2nnn[nH]2)cc1)[C@H](C(=O)O)C(C)C [Valsartan] | 86 | 127 ± 29 µM |  |
| CC(=O)O[C@H]1C(=O)[C@@]2(C)[C@H]([C@H](OC(=O)c3ccccc3)[C@]3(O)C[C@H](OC(=O)[C@H](O)[C@@H](NC(=O)c4ccccc4)c4ccccc4)C(C)=C1C3(C)C)[C@]1(OC(C)=O)CO[C@@H]1C[C@@H]2O [paclitaxel] |  |  | cellular accumulation (OAT2-tv1 [3]; 5 min, 22 nM): 90 ± 5.1 fmoles ⋅ mg protein^-1 ⋅ min^-1; mediated transport by OAT2-tv1 (OAT2-tv1 [3]; expressed in CHO cells): unable to show mediated transport; cellular accumulation (CHO parental cells): 89 ± 3.8 fmoles ⋅ mg protein^-1 ⋅ min^-1 |
| Nc1ccc(C(=O)NCC(=O)O)cc1 [para-aminohippurate] | 99 | 210 µM | uptake by HEK-OAT2-tv1 cells (OAT2-tv1 [4]; ref Cropp et al., 2008): failed to observe appreciable uptake; uptake compared to respective parental cells (OAT2-tv2 [5]): not different than uptake into the respective parental cells; uptake compared to respective parental cells (OAT2-tv1 [3]; 5 min): not different than uptake into the respective parental cells |
| CN/C(=N/CCSCc1nc[nH]c1C)NC#N [Cimetidine] | 95 | 57 µM and 57.2 µM | inhibition of OAT2 ([6]; ref Khamdang et al., 2004): no inhibition |
| CCOc1cc(CC(=O)N[C@@H](CC(C)C)c2ccccc2N2CCCCC2)ccc1C(=O)O [Repaglinide] | 99 | 30 ± 3.6 µM |  |
| O=C(O)C[C@@H](O)C(=O)O [D-malate] |  |  | cis-inhibition of penciclovir uptake (OAT2-tv1 [1]): none of the Kreb’s cycle intermediates tested, including succinate and fumarate, cis-inhibited penciclovir uptake |
| COc1ccc2c(c1)c(CC(=O)O)c(C)n2C(=O)c1ccc(Cl)cc1 [Indomethacin] | 99 |  | IC50 ([6]; ref Khamdang et al., 2002): 64.1 µM |
| Nc1nc(O)c2ncn(COC(CO)CO)c2n1 [ganciclovir] |  |  | substrate of OAT2-tv1 (OAT2-tv1 [4]; ref Cheng et al., 2012): clearly substrates of OAT2-tv1 |
| Oc1ncnc2[nH]ncc12 [Allopurinol] | 95 |  | substrate of OAT2-tv1 (OAT2-tv1 [4]; ref Cropp et al., 2008): substrate; IC50 (OAT2-tv1 [1]; [8]): 70 µM and 70.1 µM; inhibition of uric acid transport (OAT2-tv3): did not inhibit uric acid transport |
| CCCCC[N+](CCCCC)(CCCCC)CCCCC [Tetrapentylammonium] | 49 |  | IC50 (OAT2-tv1 [1]; [8]): 279 ± 142 µM |
| NS(=O)(=O)c1cc(C(=O)O)c(NCc2ccco2)cc1Cl [Furosemide] | 90 |  | IC50 ([6]; ref Hasannejad et al., 2004): 603 µM |
| CCCc1nc2c(C)cc(-c3nc4ccccc4n3C)cc2n1Cc1ccc(-c2ccccc2C(=O)O)cc1 [Telmisartan] | 96 | 17.1 ± 1.3 µM |  |
| C[C@]12CC[C@@H]3c4ccc(OS(=O)(=O)O)cc4CC[C@H]3[C@@H]1CCC2=O [Estrone Sulfate] | 95 | 36.1 ± 3.9 µM | uptake compared to respective parental cells (OAT2-tv2 [5]): not different than uptake into the respective parental cells; uptake compared to respective parental cells (OAT2-tv1 [3]; 5 min): not different than uptake into the respective parental cells |
| O=C(O)CC(=O)C(=O)O [oxaloacetate] |  |  | cis-inhibition of penciclovir uptake (OAT2-tv1 [1]): none of the Kreb’s cycle intermediates tested, including succinate and fumarate, cis-inhibited penciclovir uptake |
| CCCN(CCC)S(=O)(=O)c1ccc(C(=O)O)cc1 [Probenecid] | 64 |  |  |
| O=C(O)CCCC(=O)O [glutarate] |  |  | uptake compared to respective parental cells (OAT2-tv2 [5]): not different than uptake into the respective parental cells; uptake compared to respective parental cells (OAT2-tv1 [3]; 5 min): not different than uptake into the respective parental cells |
| CCCCC[C@H](O)/C=C/[C@H]1[C@H](O)CC(=O)[C@@H]1C/C=C\CCCC(=O)O [Prostaglandin E2] | 96 | 26.8 ± 2.4 µM |  |
| Nc1nc2c(ncn2CCC(CO)CO)c(=O)[nH]1 [Penciclovir] | 85 | 78.4 ± 8.2 µM | substrate of OAT2-tv1 (OAT2-tv1 [4]; ref Cheng et al., 2012): clearly substrates of OAT2-tv1; uptake compared to respective parental cells (OAT2-tv2 [5]): not different from uptake into the respective parental cells; uptake of penciclovir, fold higher compared to parental cells (OAT2-tv1 [3]; CHO-OAT2-tv1 cells, [3H]penciclovir 0.1 μM, 5 min): 21 fold; uptake of penciclovir, fold higher compared to parental cells (OAT2-tv1 [3]; HEK-OAT2-tv1 cells, [3H]penciclovir 0.5 μM, 5 min): 39 fold; uptake of penciclovir, fold higher compared to parental cells (OAT2-tv1 [3]; MDCK-OAT2-tv1 cells, [3H]penciclovir 0.1 μM, 5 min): 5 fold |
| CC[C@H]1OC(=O)[C@H](C)[C@@H](O[C@H]2C[C@@](C)(OC)[C@@H](O)[C@H](C)O2)[C@H](C)[C@@H](O[C@@H]2O[C@H](C)C[C@H](N(C)C)[C@H]2O)[C@](C)(O)C[C@@H](C)C(=O)[C@H](C)[C@@H](O)[C@]1(C)O [Erythromycin] | 65 | 12 ± 5.4 µM |  |
| CC[N+](CC)(CC)CC [Tetraethylammonium] | 42 | 54.3 ± 33 µM |  |
